Series [1] relates to influenza viruses of the H1 subtype. On the set-up: species or system influenza virus.
In series [2] the test system is H5 subtype of hemagglutinin. The class given is binding, influenza virus.
Series [3] concerns influenza viruses of the H3 subtype. Further details: species or system influenza virus.
Series [4] is described as follows: antibody generation by immunizing mice with peptide, serum IgG by ELISA. In kind it is in vivo, BALB/c and C57BL/6 mice. The settings on record: for induction of antibody (specific anti-JJ IgG): 5 μg, 15 μg, or 45 μg dose, ELISA with JJ peptide coated, FIG. 2A, 2B. The protocol: In this example, the peptide antigens in accordance with embodiments of the invention were used to induce antibody formation in mice. BALB/c and C57BL/6 mice (6-8 weeks old) were obtained from BioLASCO Taiwan (Taipei, Taiwan) or National Laboratory Animal Center (Taipei, Taiwan).
[…] Each group of mice was injected with a different peptide (Exp0-Exp5) solution as an antigen. For the first immunization, each mouse was given a subcutaneous injection with 100 μL (containing […] each) of the above prepared antigen solution.
The second injection was given 10-14 days after the first injection. The solution for the second injection was prepared by mixing each peptide (6 different peptides, Exp0-Exp5, each at 1:1 mix) in Freund's incomplete adjuvant. The injections were repeated for subsequent immunizations every 10-14 days after the previous injections until antibodies could be detected in sera, which took from 3-6 injections.
Mouse sera were collected at the following time points: preimmunization and at the middle time point between two adjacent injections. Once the antibodies became detectable in sera, the serum collections were performed every two weeks until antibodies could no longer be detected, which typically took about half a year. The serum collections were performed from the cheeks of the mice. Each time, 100 uL or less of blood was collected and the collection frequency was about once every two weeks. At the end of the experiments, mice were euthanized with carbon dioxide.
Antibody titers were determined using ELISA. First, a capture antibody (e.g., JJ peptide or various subtypes of hemagglutinins or fragments thereof) was coated on a 96-well microplate (100 μL per well of the diluted capture antibody). The plate was sealed and incubated at 4° C. overnight. Then, 100 μL of sample (e.g., antiserum) or standards in sample dilution buffer were added per well. […]
(§1) After the reaction, 50 μL of stop solution (acid solution) was added to each well. Then, the optical density of each well was measured immediately, using a microplate reader set to 450 nm.
On the technique in general: ELISA stands for enzyme-linked immunosorbent assay.

For series [5], the system named is influenza viruses of the H5 subtype. On the set-up: species or system influenza virus.
Series [6] relates to H7 subtype of hemagglutinin. In kind it is binding, influenza virus.
In series [7] the test system is JJ peptide. As to the kind of experiment: ELISA cross-reaction of induced IgGs with JJ peptide coated on plate. In kind it is binding. The settings on record: IgGs induced by the peptide, FIG. 2A, 2B. How it is done: (§2) Antibody titers were determined using ELISA. First, a capture antibody (e.g., JJ peptide or various subtypes of hemagglutinins or fragments thereof) was coated on a 96-well microplate (100 μL per well of the diluted capture antibody). The plate was sealed and incubated at 4° C. overnight. Then, 100 μL of sample (e.g., antiserum) or standards in sample dilution buffer were added per well. The plate was sealed and incubated at room temperature for 1 hr.
(§3) After incubation, 100 μL of a detection antibody (e.g., a horseradish peroxidase (HRP) coupled antibody), diluted in antibody dilution buffer, was added to each well. The plate was sealed and incubated at room temperature for 1 hr. Then, 200 μL of substrate solution (3,3′,5,5′-tetramethylbenzidine (TMB)) was added to each well. The reaction mixtures were incubated for 20 minutes at room temperature, without exposing the plate to direct light.
as §1

In series [8] the test system is H1 subtype of hemagglutinin. As to the kind of experiment: ELISA antibody titers against hemagglutinin subtypes. The class given is binding, influenza virus. As to conditions: FIG. 3. How it is done:
as §2, §3, §1

Series [9] concerns H3 subtype of hemagglutinin. The series is described as above. The class given is binding, influenza virus. As to conditions: FIG. 3. The protocol:
as §2, §3, §1

Series [10] concerns protease. The settings on record: phenylalanine residues of JJ substituted.

No end group written: not given here.

Turning to GLFGAIAGFIE [JJ], the “inhibition of hemagglutination by induced antibodies” value in series [1], in series [3] and in series [5] was “able to inhibit hemagglutination” throughout. For the same sequence, the “reaction of antibodies generated with the peptide with hemagglutinin” value in [2], in series [6], in [8] and in series [9] was “reacted” in each case. Besides, the “induction of antibody (specific anti-JJ IgG)” value in series [4] was “induced antibody (IgG) production”. The “binding of induced IgGs to JJ peptide (cross-reaction)” value in [7] is recorded as “bind the JJ peptide”.

Consider GLHGAIAGLIENGW [JJ-4], for which the protease resistance entry in [10] is “protease-resistant”.

GLLGAIAGPIEF [JJ-1]: the protease resistance entry in series [10] is given as “protease-resistant”. The “inhibition of hemagglutination by induced antibodies” value in series [1], in series [3] and in series [5] was “able to inhibit hemagglutination” throughout. Besides, the “reaction of antibodies generated with the peptide with hemagglutinin” value in series [2], in [6], in series [8] and in series [9] was “reacted” in each case. In addition, the “induction of antibody (specific anti-JJ IgG)” value in series [4] is “efficiently induce IgG production”. For the same sequence, in series [7], the “binding of induced IgGs to JJ peptide (cross-reaction)” value is “bind the JJ peptide”.

Regarding GLLGAIAGPIEGGW [JJ-3], in series [10], the protease resistance entry is “protease-resistant”. In addition, in series [4] (higher doses (15 μg and 45 μg), ELISA with peptide JJ-3 coated, FIG. 2C), the “induction of antibody (specific anti-JJ3 IgG)” value is “induced the production of specific anti-JJ3 antibodies”.

As to GLMGAIAGPIEF [JJ-2], the protease resistance result in series [10] is given as “protease-resistant”.
